Measurements from ChEMBL document CHEMBL1201862, “PubChem BioAssay data set” (2004).
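Growth conditions: 96-well plates. Treatment: test compound, 48 hours, 5 concentrations. Analysis: linear interpolation between bracketing concentrations; unreached endpoints set to highest concentration. Abbreviation: GI50, concentration required for 50% inhibition of growth.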 Calls of active or inactive are those of the source. No stated cut-off is given here; in the data, active = GI50 up to about 1.1 µM and inactive = higher.

Tests used:
Test in all cases: NCI-60 cell line screen, 48 h
786-0 = tested on: 786-0
A549 = tested on: A549
BT-549 = tested on: BT-549
CAKI-1 = tested on: CAKI-1
CCRF-CEM = tested on: CCRF-CEM
EKVX = tested on: EKVX
HOP-92 = tested on: HOP-92
HT-29 = tested on: HT-29
KM12 = tested on: KM12
M14 = tested on: M14
MOLT-4 = tested on: MOLT-4
NCI-H23 = tested on: NCI-H23
NCI-H460 = tested on: NCI-H460
NCI-H522 = tested on: NCI-H522
OVCAR-8 = tested on: OVCAR-8
PC-3 = tested on: PC-3
SF-268 = tested on: SF-268
TK-10 = tested on: TK-10
UACC-257 = tested on: UACC-257
UO-31 = tested on: UO-31

Measured: GI50

Oc1cccc(Nc2cc(O)nc(O)n2)c1
inactive: 786-0 > 100 µM | A549 > 100 µM | BT-549 > 100 µM | CAKI-1 > 100 µM | CCRF-CEM > 100 µM | EKVX > 100 µM | HOP-92 66.8 µM | HT-29 > 100 µM | KM12 > 100 µM | M14 > 100 µM | MOLT-4 > 100 µM | NCI-H23 > 100 µM | NCI-H460 > 100 µM | NCI-H522 > 100 µM | OVCAR-8 > 100 µM | PC-3 > 100 µM | SF-268 > 100 µM | TK-10 > 100 µM | UACC-257 > 100 µM | UO-31 > 100 µM

Cc1cc(N)ccc1C=O
inactive: 786-0 > 100 µM | A549 > 100 µM | BT-549 > 100 µM | CAKI-1 > 100 µM | CCRF-CEM > 100 µM | EKVX > 100 µM | HOP-92 > 100 µM | HT-29 > 100 µM | KM12 > 100 µM | M14 > 100 µM | MOLT-4 > 100 µM | NCI-H23 > 100 µM | NCI-H460 > 100 µM | NCI-H522 > 100 µM | OVCAR-8 > 100 µM | PC-3 > 100 µM | SF-268 > 100 µM | TK-10 > 100 µM | UACC-257 > 100 µM | UO-31 > 100 µM

O=C1NC(=O)C(Cc2ccccc2)(c2cccnc2)N1 (stereo not given)
inactive: 786-0 > 100 µM | A549 > 100 µM | BT-549 > 100 µM | CAKI-1 > 100 µM | CCRF-CEM > 100 µM | EKVX > 100 µM | HOP-92 > 100 µM | HT-29 > 100 µM | KM12 > 100 µM | M14 > 100 µM | MOLT-4 > 100 µM | NCI-H23 > 100 µM | NCI-H460 > 100 µM | NCI-H522 > 100 µM | OVCAR-8 > 100 µM | PC-3 > 100 µM | SF-268 > 100 µM | TK-10 > 100 µM | UACC-257 > 100 µM | UO-31 > 100 µM

CC(C(N)C(=O)NC(C(=O)O)C1OC(n2ccc(=O)[nH]c2=O)C(O)C1O)C(O)c1ccc(O)cn1 (stereo not given)
inactive: 786-0 > 100 µM | A549 > 100 µM | BT-549 > 100 µM | CAKI-1 > 100 µM | CCRF-CEM > 100 µM | EKVX > 100 µM | HOP-92 > 100 µM | HT-29 > 100 µM | KM12 > 100 µM | M14 > 100 µM | MOLT-4 > 100 µM | NCI-H23 > 100 µM | NCI-H460 > 100 µM | NCI-H522 > 100 µM | OVCAR-8 > 100 µM | PC-3 > 100 µM | SF-268 > 100 µM | TK-10 > 100 µM | UACC-257 > 100 µM | UO-31 > 100 µM

COc1ccc(N2CCOCC2)cc1
inactive: 786-0 > 100 µM | A549 > 100 µM | BT-549 > 100 µM | CAKI-1 > 100 µM | CCRF-CEM > 100 µM | EKVX > 100 µM | HOP-92 > 100 µM | HT-29 > 100 µM | KM12 > 100 µM | M14 > 100 µM | MOLT-4 > 100 µM | NCI-H23 > 100 µM | NCI-H460 > 100 µM | NCI-H522 > 100 µM | OVCAR-8 > 100 µM | PC-3 > 100 µM | SF-268 > 100 µM | TK-10 > 100 µM | UACC-257 > 100 µM | UO-31 > 100 µM
